# From patent publication US10889555B2, “Sulfonamide compound or salt thereof” (Taiho Pharmaceutical Co., Ltd., priority 2016, dated 2021)
# System: HCC 1806 cells
# Assay: Cell proliferation inhibitory effect on human breast cancer cell line (crystal violet, 72 hours)
# Assay type: cell-based
# Settings: Homo sapiens, HCC1806, 72 h, read-out: Cell growth suppression IC50
# Method: Human derived breast cancer cell line HCC 1806 cells were daily passaged at a cell density not exceeding 80% in ATCC recommended Roswell Park Memorial Institute medium (RPMI-1640) containing 10% fetal bovine serum (FBS). In order to start the test of cell proliferation inhibitory activity, HCC 1806 cells were suspended in the above medium, after seeing at 180 μL in each well of a 96-well flat bottom plate so that the number of cells per well was 2,000, the cells were cultured at 37° C. for 1 day in an incubator containing 5% carbon dioxide gas. On the next day, the test compound was dissolved in DMSO, and 20 μL of a drug additive solution diluted serially with distilled water to 10 times of the final concentration was added to each well of the culture plate of the cells, and the cells were cultured at 37° C. for 72 hours in an incubator containing 5% carbon dioxide gas. After culturing for 72 hours, 20 μL of glutaraldehyde was added to each well and allowed to stand for 30 minutes, then the plate was washed 10 times with water and was dried. 100 μL of a stain solution (0.05% crystal violet in a 20% methanol solution) was added to each well and allowed to stand for 30 minutes, then the plate was washed 10 times with water and was dried. 100 μL of an extract solution (0.1 N NaH2PO4: 100% ethanol=1:1) was added to each well and mixed, and the mixture was measured at a wavelength of 540 nm using a plate reader (MTP-450 manufactured by Corona Electric Co., Ltd.). The growth inhibition rate was calculated from the following formula, and the concentration (IC50 (μM)) of a test compound inhibiting 50% was determined. Growth inhibition rate (%)={(C−B)−(T−B)}/(C−B)×100
# T: Absorbance of well to which test compound was added
# C: Absorbance of wells to which no test compound was added
# B: Absorbance of wells to which no cell suspension was added
row,SMILES,IC50 [nM]
1,"Cc1ccc(F)c([C@@H](C)[C@H](NS(=O)(=O)c2ccc(Cl)c(C(=O)N3C4CCC3COC4)n2)c2n[nH]c(=O)o2)c1C [Example 116, 6-(3-oxa-8-azabicyclo[3.2.1]octane-8-carbonyl)-5-chloro-N-((1S,2R)-2-(6-fluoro-2,3-dimethylphenyl)-1-(5-oxo-4,5-dihydro-1,3,4-oxadiazol-2-yl)propyl)pyridine-2-sulfonamide]",320
2,"Cc1ccc(F)c([C@@H](C)[C@H](NS(=O)(=O)c2ccc(Cl)c(C(=O)N3CC4CCC(C3)O4)n2)c2n[nH]c(=O)o2)c1C [Example 117, 6-(8-oxa-3-azabicyclo[3.2.1]octane-3-carbonyl)-5-chloro-N-((1S,2R)-2-(6-fluoro-2,3-dimethylphenyl)-1-(5-oxo-4,5 dihydro-1,3,4-oxadiazol-2-yl)propyl)pyridine-2-sulfonamide]",310
3,"CC(=O)OC1(C(F)(F)F)CCOc2c(S(=O)(=O)N[C@H](c3n[nH]c(=O)o3)[C@H](C)c3c(F)ccc(C)c3C)ccc(Cl)c21 (stereo partly drawn) [Example 123, 5-chloro-8-(N-((1S,2R)-2-(6-fluoro-2,3-dimethylphenyl)-1-(5-oxo-4,5-dihydro-1,3,4-oxadiazol-2-yl)propyl)sulfamoyl)-4-(trifluoromethyl)chroman-4-yl acetate]",170
4,"[2H]C([2H])([2H])C1(OC(C)=O)CCOc2c(S(=O)(=O)N[C@H](c3n[nH]c(=O)o3)[C@H](C)c3c(F)ccc(C)c3C)ccc(Cl)c21 (stereo partly drawn) [Example 129, 5-Chloro-8-(N-((1S,2R)-2-(6-fluoro-2,3-dimethylphenyl)-1-(5-oxo-4,5-dihydro-1,3,4-oxadiazol-2-yl)propyl)sulfamoyl)-4-methyl-d3-chroman-4-yl Acetate]",80
5,"COc1c(S(=O)(=O)N[C@H](c2n[nH]c(=O)o2)[C@H](C)c2c(F)ccc(C)c2C)ccc(Cl)c1C(C)OC(C)=O (stereo partly drawn) [Example 144, 1-(6-chloro-3-(N-((1S,2R)-2-(6-fluoro-2,3-dimethylphenyl)-1-(5-oxo-4,5-dihydro-1,3,4-oxadiazol-2-yl)propyl)sulfamoyl)-2-methoxyphenyl)ethyl acetate]",960
6,"Cc1ccc(F)c([C@@H](C)[C@H](NS(=O)(=O)c2ccc(Cl)cc2OC(F)F)c2n[nH]c(=O)o2)c1C [Example 146, 4-chloro-2-(difluoromethoxy)-N-((1S,2R)-2-(6-fluoro-2,3-dimethylphenyl)-1-(5-oxo-4,5-dihydro-1,3,4-oxadiazol-2-yl)propyl)benzenesulfonamide]",830
7,"CC(=O)c1cc(Cl)ccc1S(=O)(=O)N[C@H](c1n[nH]c(=O)o1)[C@H](C)c1c(F)ccc(C)c1C [Example 147, 2-acetyl-4-chloro-N-((1S,2R)-2-(6-fluoro-2,3-dimethylphenyl)-1-(5 oxo-4,5-dihydro-1,3,4-oxadiazol-2-yl)propyl)benzenesulfonamide]",650
8,COc1nc(Cl)ccc1S(=O)(=O)N[C@H](c1n[nH]c(=O)o1)[C@H](C)c1c(F)ccc(C)c1C [Example 148],400
9,"Cc1ccc(F)c([C@@H](C)[C@H](NS(=O)(=O)c2ccc(Cl)c3cccnc23)c2n[nH]c(=O)o2)c1C [Example 153, 5-chloro-N-((1S,2R)-2-(6-fluoro-2,3-dimethylphenyl)-1-(5-oxo-4,5-dihydro-1,3,4-oxadiazol-2-yl)propyl)quinoline-8-sulfonamide]",910
10,"Cc1ccc(F)c([C@@H](C)[C@H](NS(=O)(=O)c2ccc(Cl)c(C(=O)N3CCC4(CC3)COC4)n2)c2n[nH]c(=O)o2)c1C [Example 156, 5-chloro-N-((1S,2R)-2-(6-fluoro-2,3-dimethylphenyl)-1-(5-oxo-4,5-dihydro-1,3,4-oxadiazol-2-yl)propyl)-6-(2-oxa-7-azaspiro[3.5]nonane-7-carbonyl)pyridine-2-sulfonamide]",870
11,"CC(=O)NC1CCOc2c(S(=O)(=O)N[C@H](c3n[nH]c(=O)o3)[C@H](C)c3c(F)ccc(C)c3C)ccc(Cl)c21 (stereo partly drawn) [Example 157, N-(5-chloro-8-(N-((1S,2R)-2-(6-fluoro-2,3-dimethylphenyl)-1-(5-oxo-4,5-dihydro-1,3,4-oxadiazol-2-yl)propyl)sulfamoyl)chroman-4-yl)acetamide]",370
12,"CC(=O)OC1(C)CCOc2c(S(=O)(=O)N[C@H](c3n[nH]c(=O)o3)[C@H](C)c3c(F)ccc(Br)c3C)ccc(Cl)c21 (stereo partly drawn) [Example 167, 8-(N-((1S,2R)-2-(3-bromo-6-fluoro-2-methylphenyl)-1-(5-oxo-4,5-dihydro-1,3,4-oxadiazol-2-yl)propyl)sulfamoyl)-5-chloro-4-methylchroman-4-yl-acetate]",140
13,"Cc1ccc(F)c([C@@H](C)[C@H](NS(=O)(=O)c2ccc(F)c(C(C)(C)O)c2F)c2n[nH]c(=O)o2)c1C [Example 186, 2,4-difluoro-N-((1S,2R)-2-(6-fluoro-2,3-dimethylphenyl)-1-(5-oxo-4,5-dihydro-1,3,4-oxadiazol-2-yl)propyl)-3-(2-hydroxypropan-2-yl)benzenesulfonamide]",640
14,"Cc1ccc(F)c([C@@H](C)[C@H](NS(=O)(=O)c2ccc(Cl)c(C(C)(C)O)n2)c2n[nH]c(=O)o2)c1C [Example 193, 5-chloro-N-((1S,2R)-2-(6-fluoro-2,3-dimethylphenyl)-1-(5-oxo-4,5-dihydro-1,3,4-oxadiazol-2-yl)propyl)-6-(2-hydroxypropan-2-yl)pyridine-2-sulfonamide]",110
15,"Cc1ccc(F)c([C@@H](C)[C@H](NS(=O)(=O)c2cc(C(C)(C)O)c(F)cc2C(N)=O)c2n[nH]c(=O)o2)c1C [Example 196, 5-fluoro-2-(N-((1S,2R)-2-(6-fluoro-2,3-dimethylphenyl)-1-(5-oxo-4,5-dihydro-1,3,4-oxadiazol-2-yl)propyl)sulfamoyl)-4-(2-hydroxypropan-2-yl)benzamide]",320
16,"Cc1ccc(F)c([C@@H](C)[C@H](NS(=O)(=O)c2cc(C(C)(C)O)ccc2C(N)=O)c2n[nH]c(=O)o2)c1C [Example 197, 2-(N-((1S,2R)-2-(6-fluoro-2,3-dimethylphenyl)-1-(5-oxo-4,5-dihydro-1,3,4-oxadiazol-2-yl)propyl)sulfamoyl)-4-(2-hydroxypropan-2-yl)benzamide]",410
17,"Cc1ccc(F)c([C@@H](C)[C@H](NS(=O)(=O)c2cc(C(C)(C)O)c(Cl)cc2C(N)=O)c2n[nH]c(=O)o2)c1C [Example 198, 5-chloro-2-(N-((1S,2R)-2-(6-fluoro-2,3-dimethylphenyl)-1-(5-oxo-4,5-dihydro-1,3,4-oxadiazol-2-yl)propyl)sulfamoyl)-4-(2-hydroxypropan-2-yl)benzamide]",50
18,"COc1c(S(=O)(=O)N[C@H](c2n[nH]c(=O)o2)[C@H](C)c2cccc(C)c2C)ccc(Cl)c1C(C)O (stereo partly drawn) [Example 203, 4-chloro-N-((1S,2R)-2-(2,3-dimethylphenyl)-1-(5-oxo-4,5-dihydro-1,3,4-oxadiazol-2-yl)propyl)-3-(1-hydroxyethyl)-2-methoxybenzenesulfonamide]",810
19,"COc1c(S(=O)(=O)N[C@H](c2n[nH]c(=O)o2)[C@H](C)c2c(F)ccc(C)c2C)ccc(Cl)c1C(C)O (stereo partly drawn) [Example 204, 4-chloro-N-((1S,2R)-2-(6-fluoro-2,3-dimethylphenyl)-1-(5-oxo-4,5-dihydro-1,3,4-oxadiazol-2-yl)propyl)-3-(1-hydroxyethyl)-2-methoxybenzenesulfonamide]",150
20,"COc1c(S(=O)(=O)N[C@H](c2n[nH]c(=O)o2)[C@H](C)c2c(F)ccc3ccccc23)ccc(Cl)c1C(C)O (stereo partly drawn) [Example 205, 4-chloro-N-((1S,2R)-2-(2-fluoronaphthalene-1-yl)-1-(5-oxo-4,5-dihydro-1,3,4-oxadiazol-2-yl)propyl)-3-(1-hydroxyethyl)-2-methoxybenzenesulfonamide]",250
21,"CCc1ccc(F)c([C@@H](C)[C@H](NS(=O)(=O)c2ccc(Cl)c(C(C)O)c2OC)c2n[nH]c(=O)o2)c1C (stereo partly drawn) [Example 206A, 4-chloro-N-((1S,2R)-2-(3-ethyl-6-fluoro-2-methylphenyl)-1-(5-oxo-4,5-dihydro-1,3,4-oxadiazol-2-yl)propyl)-3-(1-hydroxyethyl)-2-methoxybenzenesulfonamide]",570
22,"Cc1ccc(F)c([C@@H](C)[C@H](NS(=O)(=O)c2cccc3c2OCCC3(O)C(F)(F)F)c2n[nH]c(=O)o2)c1C (stereo partly drawn) [Example 211A, N-((1S,2R)-2-(6-fluoro-2,3-dimethylphenyl)-1-(5-oxo-4,5-dihydro-1,3,4-oxadiazol-2-yl)propyl)-4-hydroxy-4-(tifluoromethyl)chroman-8-sulfonamide]",850
23,"COc1c(S(=O)(=O)N[C@H](c2n[nH]c(=O)o2)[C@H](C)c2c(F)ccc(C)c2C)ccc(Cl)c1C(C)(C)O [Example 212, 4-chloro-N-((1S,2R)-2-(6-fluoro-2,3-dimethylphenyl)-1-(5-oxo-4,5-dihydro-1,3,4-oxadiazol-2-yl)propyl)-3-(2-hydroxypropan-2-yl)-2-methoxybenzenesulfonamide]",260
